Reference: patent US20260102340A1, “Therapeutic Formulation” (1000739373 Ontario Ltd., priority 2022, published 2026)

Experiment: Stability of CBD formulation in HFA 134a (residual)
Format: physicochemical
Conditions: for Residual (% of 5° C. data): Valve Up
Protocol: The stability of a cannabidiol (CBD) formulation in HFA 134a was evaluated over a 6-month period.
The formulation consisted of 3.57% (w/w) CBD, 15% (w/w) ethanol, and HFA 134a. The formulation was packaged in Presspart™ Plasma 14 mL canisters with metering valves 1908 (Aptar™). The canisters were stored in the valve-up orientation for 6 months at 5° C., 25° C., or 40° C. The residual formulation was measured at 1 month and 6 months.

## C=C(C)[C@@H]1CCC(C)=C[C@H]1c1c(O)cc(CCCCC)cc1O [CBD, cannabidiol]
5° C., 25° C. and 40° C.
  Stability of CBD-HFA formulations: stable
Batch OZ210527/DAL/G1, 1 month (n = 3), 25° C.
  Residual (% of 5° C. data): 100.3 % of 5 °C data
Batch OZ210527/DAL/G1, 1 month (n = 3), 40° C.
  Residual (% of 5° C. data): 98.5 % of 5 °C data
Batch OZ210527/DAL/G1, 3.57% CBD, 15% ethanol, HFA 134a, 1 month (n = 3), 5° C.
  Residual (% of 5° C. data): 100.00 % of 5 °C data
Batch OZ210527/DAL/G1, 6 month (n = 4), 25° C.
  Residual (% of 5° C. data): 93.3 % of 5 °C data
Batch OZ210527/DAL/H1, 1 month (n = 3), 25° C.
  Residual (% of 5° C. data): 100.2 % of 5 °C data
Batch OZ210527/DAL/H1, 1 month (n = 3), 40° C.
  Residual (% of 5° C. data): 98.1 % of 5 °C data
Batch OZ210527/DAL/H1, 3.57% CBD, 15% ethanol, HFA 134a, 1 month (n = 3), 5° C.
  Residual (% of 5° C. data): 100.0 % of 5 °C data
Batch OZ210527/DAL/H1, 6 month (n = 4), 25° C.
  Residual (% of 5° C. data): 93.5 % of 5 °C data
